Laboratory results published in ChEMBL document CHEMBL1201862, “PubChem BioAssay data set” (2004).
Activity calls are given as the source filed them.

Key:
[1] = T. cruzi growth inhibition in host cells, dose response, cell-based, plate reader, dry powder, set 2 (AID 652275); type: functional
[2] = growth inhibition of intracellular T. cruzi, dose response, cell-based, plate reader, dry powder samples (AID 651845); type: functional
[3] = T. cruzi intracellular amastigote growth inhibition, dose response, imaging, CA-I/72 strain, bovine embryo skeletal muscle, dry powder (AID 651885); type: functional, cell-based
Caspase-3 = biological target: T1, Caspase-3 (Homo sapiens, UniProt P42574); type: functional;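 also: Dose-response selectivity test against caspase-3 for candidate inhibitors of sentrin-specific proteases (SENPs)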
T1 sequence (P42574 whole entry): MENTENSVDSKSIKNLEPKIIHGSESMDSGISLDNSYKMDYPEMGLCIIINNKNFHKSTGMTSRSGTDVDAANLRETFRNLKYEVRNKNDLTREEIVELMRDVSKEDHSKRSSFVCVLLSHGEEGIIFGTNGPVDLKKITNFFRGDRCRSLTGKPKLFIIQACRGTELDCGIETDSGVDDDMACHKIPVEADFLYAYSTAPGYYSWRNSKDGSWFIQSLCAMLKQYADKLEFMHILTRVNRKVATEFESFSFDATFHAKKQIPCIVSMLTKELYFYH

[4] = biological target: T2, Sentrin-specific protease 7 (Homo sapiens, UniProt Q9BQF6); type: functional;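 also: Luminescence-based dose-response confirmation of ultra-high-throughput screening hits, measuring inhibition of SENP7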
T2 sequence (Q9BQF6 whole entry): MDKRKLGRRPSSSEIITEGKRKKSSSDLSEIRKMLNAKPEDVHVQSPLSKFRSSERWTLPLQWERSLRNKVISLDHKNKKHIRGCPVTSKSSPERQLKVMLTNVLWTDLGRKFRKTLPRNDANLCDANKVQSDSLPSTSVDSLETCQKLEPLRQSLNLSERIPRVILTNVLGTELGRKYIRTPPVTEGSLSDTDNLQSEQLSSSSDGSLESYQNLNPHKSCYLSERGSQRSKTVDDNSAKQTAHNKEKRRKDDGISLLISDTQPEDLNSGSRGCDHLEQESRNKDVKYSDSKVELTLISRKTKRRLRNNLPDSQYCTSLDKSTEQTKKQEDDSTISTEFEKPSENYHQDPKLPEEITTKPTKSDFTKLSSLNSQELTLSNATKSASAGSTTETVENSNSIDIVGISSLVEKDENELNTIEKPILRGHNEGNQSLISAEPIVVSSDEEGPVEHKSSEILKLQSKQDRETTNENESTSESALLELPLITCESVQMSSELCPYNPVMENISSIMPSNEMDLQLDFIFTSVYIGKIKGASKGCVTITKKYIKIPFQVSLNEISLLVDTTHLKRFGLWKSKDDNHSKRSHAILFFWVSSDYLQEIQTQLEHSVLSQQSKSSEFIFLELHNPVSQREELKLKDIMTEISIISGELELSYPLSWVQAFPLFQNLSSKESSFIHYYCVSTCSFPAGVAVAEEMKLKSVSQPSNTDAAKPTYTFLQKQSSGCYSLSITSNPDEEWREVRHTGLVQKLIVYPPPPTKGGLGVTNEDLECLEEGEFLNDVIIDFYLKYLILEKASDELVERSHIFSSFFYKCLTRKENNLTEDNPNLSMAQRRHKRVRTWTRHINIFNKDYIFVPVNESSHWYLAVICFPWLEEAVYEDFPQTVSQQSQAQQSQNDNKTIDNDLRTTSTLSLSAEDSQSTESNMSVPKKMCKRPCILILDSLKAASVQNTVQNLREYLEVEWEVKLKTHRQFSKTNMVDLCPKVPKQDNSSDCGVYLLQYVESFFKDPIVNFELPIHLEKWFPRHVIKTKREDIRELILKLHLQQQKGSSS

[5] = biological target: T3, Sentrin-specific protease 6 (Homo sapiens, UniProt Q9GZR1); type: functional;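 also: Luminescence-based dose-response confirmatory assay of SENP6 inhibition, following up an ultra-high-throughput screen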
T3 sequence (Q9GZR1 whole entry): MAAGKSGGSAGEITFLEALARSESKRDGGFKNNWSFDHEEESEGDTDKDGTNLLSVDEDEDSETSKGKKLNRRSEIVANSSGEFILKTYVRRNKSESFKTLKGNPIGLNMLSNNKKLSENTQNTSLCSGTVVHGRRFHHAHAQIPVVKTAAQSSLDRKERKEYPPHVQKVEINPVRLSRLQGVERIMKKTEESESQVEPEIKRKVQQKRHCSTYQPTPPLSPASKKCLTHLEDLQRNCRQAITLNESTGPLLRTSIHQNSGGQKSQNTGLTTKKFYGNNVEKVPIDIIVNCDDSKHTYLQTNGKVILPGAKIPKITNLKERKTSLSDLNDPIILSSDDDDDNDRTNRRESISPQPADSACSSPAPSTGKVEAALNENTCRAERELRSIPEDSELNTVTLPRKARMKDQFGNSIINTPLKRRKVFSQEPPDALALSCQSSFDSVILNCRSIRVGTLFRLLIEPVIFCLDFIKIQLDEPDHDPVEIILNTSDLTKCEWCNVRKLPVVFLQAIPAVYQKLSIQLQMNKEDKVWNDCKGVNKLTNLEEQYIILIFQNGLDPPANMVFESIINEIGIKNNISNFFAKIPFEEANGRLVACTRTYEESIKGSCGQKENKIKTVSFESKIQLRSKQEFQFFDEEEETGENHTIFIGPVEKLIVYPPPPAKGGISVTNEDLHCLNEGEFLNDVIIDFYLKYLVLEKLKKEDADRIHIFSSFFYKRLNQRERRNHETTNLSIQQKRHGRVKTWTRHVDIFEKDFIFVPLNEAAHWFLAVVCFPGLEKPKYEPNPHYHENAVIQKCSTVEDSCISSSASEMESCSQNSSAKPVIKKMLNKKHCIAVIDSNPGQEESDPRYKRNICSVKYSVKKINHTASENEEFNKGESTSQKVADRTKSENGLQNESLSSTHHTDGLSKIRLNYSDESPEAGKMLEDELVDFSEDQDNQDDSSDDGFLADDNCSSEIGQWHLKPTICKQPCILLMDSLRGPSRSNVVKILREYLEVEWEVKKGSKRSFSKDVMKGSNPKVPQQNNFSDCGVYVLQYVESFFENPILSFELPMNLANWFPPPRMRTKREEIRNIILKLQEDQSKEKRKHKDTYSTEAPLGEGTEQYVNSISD

[6] = biological target: T4, Sentrin-specific protease 8 (Homo sapiens, UniProt Q96LD8); type: functional;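 also: luminescence read-out of SENP8 inhibition, dose-response confirmation following an ultra-high-throughput screen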
T4 sequence (Q96LD8 whole entry): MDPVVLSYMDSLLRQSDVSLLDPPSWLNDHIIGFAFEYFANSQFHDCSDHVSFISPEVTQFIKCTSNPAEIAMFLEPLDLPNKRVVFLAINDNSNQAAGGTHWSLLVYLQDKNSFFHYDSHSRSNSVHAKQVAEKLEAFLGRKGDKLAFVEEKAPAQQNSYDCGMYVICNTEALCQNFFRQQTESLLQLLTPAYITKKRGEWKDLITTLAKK

[7] = biological target: T5, Oxysterols receptor LXR-beta (Homo sapiens, UniProt P55055); type: functional, cell-based;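 also: agonist activity at LXR measured by a cell-based luminescence readout across a dose range, run as a counterscreen for daf-12 agonists; potency for activation of Gal4-LXR reporter so compounds are agonists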
T5 sequence (P55055 whole entry): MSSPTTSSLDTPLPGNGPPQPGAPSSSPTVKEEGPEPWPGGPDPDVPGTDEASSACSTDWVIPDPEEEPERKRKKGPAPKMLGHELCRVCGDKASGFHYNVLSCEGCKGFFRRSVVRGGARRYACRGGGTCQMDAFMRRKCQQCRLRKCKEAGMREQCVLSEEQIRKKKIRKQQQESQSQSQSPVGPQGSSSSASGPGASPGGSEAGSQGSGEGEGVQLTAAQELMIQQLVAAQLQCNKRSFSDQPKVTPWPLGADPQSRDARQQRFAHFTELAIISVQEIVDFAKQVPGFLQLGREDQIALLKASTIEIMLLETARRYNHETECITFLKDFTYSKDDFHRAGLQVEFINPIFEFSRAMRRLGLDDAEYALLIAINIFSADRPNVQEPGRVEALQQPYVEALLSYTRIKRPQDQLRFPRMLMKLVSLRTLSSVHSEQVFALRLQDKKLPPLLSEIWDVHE

Cytochrome P450 2D6 = Cytochrome P450 2D6 (Homo sapiens, UniProt P10635);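 also: CYP2D6 member of a cytochrome P450 panel assay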
Chain of Cytochrome P450 2D6 (P10635 whole entry): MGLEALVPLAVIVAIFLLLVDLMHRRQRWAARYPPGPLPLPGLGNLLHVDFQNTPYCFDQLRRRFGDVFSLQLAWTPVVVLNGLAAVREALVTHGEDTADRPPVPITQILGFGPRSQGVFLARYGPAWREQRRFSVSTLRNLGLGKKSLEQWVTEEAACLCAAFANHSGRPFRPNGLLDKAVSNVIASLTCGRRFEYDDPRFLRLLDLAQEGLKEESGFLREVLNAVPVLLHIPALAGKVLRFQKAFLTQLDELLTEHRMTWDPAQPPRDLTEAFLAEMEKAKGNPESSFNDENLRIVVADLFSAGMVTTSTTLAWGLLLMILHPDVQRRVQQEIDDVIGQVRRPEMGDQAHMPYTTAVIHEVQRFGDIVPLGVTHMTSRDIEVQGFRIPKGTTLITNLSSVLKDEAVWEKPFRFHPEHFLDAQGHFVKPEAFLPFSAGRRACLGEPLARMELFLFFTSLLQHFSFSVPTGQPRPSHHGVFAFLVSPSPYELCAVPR

Cytochrome P450 2C9 = Cytochrome P450 2C9 (Homo sapiens, UniProt P11712)
Chain of Cytochrome P450 2C9 (P11712 whole entry): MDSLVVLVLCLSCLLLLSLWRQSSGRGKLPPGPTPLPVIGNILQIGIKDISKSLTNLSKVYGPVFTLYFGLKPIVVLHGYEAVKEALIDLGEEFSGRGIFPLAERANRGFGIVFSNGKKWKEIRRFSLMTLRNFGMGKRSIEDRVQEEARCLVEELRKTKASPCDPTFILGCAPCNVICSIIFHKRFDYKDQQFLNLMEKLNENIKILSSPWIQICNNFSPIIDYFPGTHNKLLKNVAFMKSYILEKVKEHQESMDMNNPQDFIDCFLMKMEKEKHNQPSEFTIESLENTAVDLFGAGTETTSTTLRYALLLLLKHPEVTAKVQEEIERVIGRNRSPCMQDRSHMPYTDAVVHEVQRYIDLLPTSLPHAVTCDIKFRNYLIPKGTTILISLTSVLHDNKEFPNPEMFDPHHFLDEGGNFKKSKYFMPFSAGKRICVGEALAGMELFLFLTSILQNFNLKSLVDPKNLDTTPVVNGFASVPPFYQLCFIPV

[8] = Late stage assay provider results from the probe development effort to identify selective inhibitors of heat shock protein 90 (HSP90): Absorbance-based cell proliferation assay in SKBR3 cells.; type: functional; conditions: SK-BR-3
[9] = Late stage assay provider results from the probe development effort to identify selective inhibitors of heat shock protein 90 (HSP90): Absorbance-based cell proliferation assay in MCF7 cells.; type: functional
[10] = Luminescence-based cell-based high throughput dose response assay to identify activators of the DAF-12 from the parasite S. stercoralis (ssDAF-12).; type: functional
[11] = biological target: T5, Oxysterols receptor LXR-beta; experiment: LXR agonists, Gal4 luciferase reporter, dose response, counter-screen for ssDAF-12 agonist project, cell-based, luminescence, HEK293, S. stercoralis campaign (AID 720737); type: functional; conditions: read-out: IC50 (the source's name)
Paired box protein Pax-8 = Paired box protein Pax-8 (Homo sapiens, UniProt Q06710); experiment: inhibitors of PAX8-driven TPO luciferase reporter, dose response, RMG-I cells, cherry-pick (AID 687027); type: functional, cell-based;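 also: luciferase reporter driven by Pax8 target thyroperoxidase promoter measured by SteadyGlo luminescence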
Chain of Paired box protein Pax-8 (Q06710 whole entry): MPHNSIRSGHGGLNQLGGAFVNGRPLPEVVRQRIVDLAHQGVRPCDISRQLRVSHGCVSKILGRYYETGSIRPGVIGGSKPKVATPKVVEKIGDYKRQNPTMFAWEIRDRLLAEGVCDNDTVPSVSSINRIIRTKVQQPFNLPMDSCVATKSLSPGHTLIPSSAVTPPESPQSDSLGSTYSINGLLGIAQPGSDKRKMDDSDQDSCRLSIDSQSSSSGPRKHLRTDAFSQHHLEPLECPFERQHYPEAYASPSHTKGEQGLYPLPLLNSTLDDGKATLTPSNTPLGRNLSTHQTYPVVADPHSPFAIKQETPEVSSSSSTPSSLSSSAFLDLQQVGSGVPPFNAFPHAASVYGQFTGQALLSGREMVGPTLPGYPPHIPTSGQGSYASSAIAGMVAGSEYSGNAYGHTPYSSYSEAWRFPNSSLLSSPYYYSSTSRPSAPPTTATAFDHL

[12] = PAX2 cell-based inhibition, dose response, selectivity assay for PAX8 inhibitor project, plate reader, dry powder samples (AID 743048); type: functional;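 also: HEK293 cells carrying a WT1 promoter luciferase reporter driven by expressed Pax2; potency is for inhibition of Pax2 driven reporter signal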
[13] = cytotoxicity in COV362 ovarian cancer cells, dose response, cytotoxicity control for PAX8 inhibitor project, cell-based, plate reader, dry powder, SA12 (AID 743144); type: functional
[14] = NIH:OVCAR-3 ovarian cancer cell cytotoxicity, dose response, PAX8 inhibitor project, plate reader, dry powder samples (AID 743044); type: functional, cell-based
[15] = PAX5 activity inhibitors, dose response, selectivity assay for PAX8 inhibitor project, cell-based, plate reader, dry powder samples (AID 743047); type: functional;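 also: HEK293 cells carrying a Pax5 driven CD19 promoter luciferase reporter; potency of inhibitors that lower reporter luminescence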
[16] = cytotoxicity in OVCAR4 cells, dose response, cytotoxicity control for PAX8 inhibitor project, cell-based, plate reader, dry powder, SA11 (AID 743150); type: functional; conditions: OVCAR-4
[17] = cytotoxicity in COV434 cells, dose response, cytotoxicity control for PAX8 inhibitor project, cell-based, plate reader, dry powder, SA7 (AID 743145); type: functional
[18] = cytotoxicity in OV-90 ovarian cancer cells, dose response, PAX8 inhibitor project, cell-based, plate reader, dry powder, SA8 (AID 743149); type: functional
[19] = cytotoxicity dependent on PAX8, dose response, cell-based, plate reader, dry powder (AID 743049); type: functional
[20] = P. falciparum 3D7-ScDHODH growth inhibitors, dose response, SYBR Green, dry powder samples (AID 1159570); type: functional, cell-based;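 also: parasite growth measured after 72 hours of compound exposure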
[21] = HepG2 cell cytotoxicity, dose response, cytotoxicity control, plate reader, dry powder samples (AID 1159569); type: functional, cell-based;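 also: inhibitor potency with signal falling toward the positive control level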
[22] = P. falciparum Dd2 growth inhibitors, dose response, SYBR Green, cherry-picked samples (AID 1159567); type: functional, cell-based
[23] = P. falciparum Dd2 growth inhibitors, dose response, SYBR Green, dry powder samples (AID 1159566); type: functional, cell-based;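 also: potency for growth inhibition with lower SYBR green DNA signal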
[24] = HepG2 cell cytotoxicity, dose response, cytotoxicity control, cherry-picked samples (AID 1159577); type: functional, cell-based
[25] = P. falciparum ATP4 D1247Y mutant growth inhibitors, dose response, NITD609-resistant line, SYBR Green, dry powder (AID 1159571); type: functional, cell-based;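 also: parasites synchronized at ring stage by sorbitol before testing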

With `CCCn1ncc(CN(C)C[C@H]2Oc3c(NC(=O)c4ccncc4)cccc3C(=O)N(C(C)C)C[C@@H]2C)c1C` as the compound, how does the AC50 [1] read?
Its AC50 is 0.521 µM (active).

What about the AC50 [2] of the same compound?
Its AC50 is 0.521 µM (active).

And the IC50 [3]?
The IC50 was 2.92 µM (inconclusive).

What does the source list for `O=[N+]([O-])c1cccnc1NCCNc1ncc(C(F)(F)F)cc1Cl`?
IC50 (Caspase-3): 28.7 µM (active); IC50 [4]: 6.52 µM (active); IC50 [5]: 19.1 µM (active); IC50 [6]: 23.3 µM (active); EC50 [7]: > 67.5 µM (inactive); AC50 (Cytochrome P450 2D6): 14.1 µM (inconclusive); AC50 (Cytochrome P450 2C9): inconclusive

Which results are given for `O=C1OC(=O)/C(=C\NCCc2ccccc2)C=C1Br`?
IC50 [8]: 3.7 µM (active); IC50 [9]: 2.1 µM (active)

With `CCOc1ccccc1-n1nnnc1SCc1nc2ccccc2s1` as the compound, how does the IC50 [10] read?
The IC50 was > 67.5 µM (inactive).

And the EC50 [11]?
The EC50 was > 67.5 µM (inactive).

Which AC50 (Paired box protein Pax-8) does the source give for `COc1cccc(C#Cc2ccc([C@H]3[C@@H](CO)N(C(=O)C4CCCCC4)[C@H]3C#N)cc2)c1` here?
Its AC50 is 3.39 µM (active).

And the AC50 [12]?
The AC50 was 16.8 µM (active).

And the AC50 [13]?
The AC50 was 23.2 µM (active).

What about the AC50 [14] of the same compound?
Its AC50 is 46.6 µM (active).

And the AC50 [15]?
Its AC50 is 11.9 µM (active).

And the AC50 [16]?
Its AC50 is 7.73 µM (active).

What about the AC50 [17] of the same compound?
Its AC50 is 17.4 µM (active).

What about the AC50 [18] of the same compound?
Its AC50 is 24.7 µM (active).

What about the AC50 [19] of the same compound?
The AC50 was 8.27 µM (active).

What about the AC50 [20] of the same compound?
Its AC50 is 1.86 µM (active).

And the AC50 [21]?
Its AC50 is 46.6 µM (active).

What about the AC50 [22] of the same compound?
The AC50 was 0.833 µM (active).

What about the AC50 [23] of the same compound?
Its AC50 is 1.21 µM (active).

And the AC50 [24]?
The AC50 was 36.2 µM (active).

And the AC50 [25]?
The AC50 was 2.15 µM (active).
